Experimental data from patent US20160166507A1, “NANOEMULSIONS OF HYDROPHOBIC PLATINUM DERIVATIVES” (NEMUCORE MEDICAL INNOVATIONS, INC., priority 2013, published 2016).

What was measured:
[1] = tested on: SKOV-3 Ovarian Cancer Cells; test: MTT cytotoxicity assay with combination index analysis; format: cell-based, human; details: for Degree of Combination Effect: Pt complex with CER
Protocol: In order to determine if the nanoemulsion formulations according to the disclosure produce a cytotoxic effect, the following experiments were done on SKOV3 cells.
A tetrazolium (MTT) assay was performed, which measures the activity of cellular enzymes that reduces the MTT dye to insoluble formazan. SKOV3 cells were treated with corresponding test nanoemulsions or control solutions as indicated below in Table VI. Polyethylenimine at 50 μg/ml was used as a positive control for cytotoxicity. The effect of cis-Pt in solution, nanoemulsion formulations, and EGFR-targeted nanoemulsion formulations of the disclosure on the viability of ovarian SKOV3 cells were studied and measured after 72 hr treatment. After the completion of treatment, cells were incubated with MTT reagent (50 μg/well) for 2 hr. The resulting formazan crystals were dissolved in dimethyl sulfoxide ([…]) and measured at 570 nm in the Plate reader (Synergy HT, Biotek Instruments, Winooski, Vt.).
Values are shown as mean±SD, n=8. All IC50 values were obtained by analyzing the MTT assays results using Graphpad Prism 5 scientific data analysis software.
The optimum concentration of multiple chemotherapeutic agents combined in the nanoemulsion formulations of the present disclosure can be determined by calculating the combination index from the dose response curves of the single agents (Chou (2006) Pharmacol. Rev. 58(3): 621-681). This method uses the isobologram equation below to determine combination index (CI): […]
where, “a” is the primary therapeutic IC50 in combination with secondary therapeutic at concentration “b.” “A” is the primary therapeutic IC50 without secondary therapeutic; and “B” is the secondary therapeutic IC50 in the absence of primary therapeutic. The CI represents the degree of interaction between two drugs regardless of mechanism. […]
For the nanoemulsion formulations of the present disclosure, the ratio of Pt:CER was determined in order to identify ratios that could reduce the IC50 of Pt.

[2] = tested on: SKOV3 human ovary cancer cells; test: In vivo therapeutic efficacy in mice injected ip with SKOV3 cells; design: species or system Nu/Nu female mice
Protocol: In order to determine if the nanoemulsion formulations according to the disclosure produce therapeutic efficacy against cancer in vivo, the following experiment was performed. Orthotropic tumors were developed in 30 Nu/Nu female mice, each weighing approximately 20 g (Charles River Laboratories, Cambridge, Mass.). The mice were injected intraperitoneally (ip) with 4×10^6 SKOV3 human ovary cancer cells (ATCC, Manassas, Va.) suspended in phosphate buffered saline100 μl PBS. The 30 mice were divided into 3 test groups of 10 individual mice. Each mouse was then dosed every 7 d for 5 wk with either nothing (control group) or 1 of 2 test compounds. The first test compound (cisplatin) was administered as a comparative sample in 5 mg/kg doses. The second test compound (EGFR-targeted nanoemulsion formulation containing Pt-MMA and ceramide in a 1:5 molar ratio) was administered in 3 cycles of 5 mg/kg platinum and an additional 2 cycles of 7.5 mg/kg platinum. The doses of Pt-MMA (21 mg/kg) and cis-Platin (5 mg/kg) were calculated so that animals received equivalent amounts of Pt. The survival time of each group of mice was determined and the median survival time (days) calculated using Graphpad Kaplan-Meyers survival analysis software on the basis of the observed survival time of each mouse.

[3] = cited from earlier work
[4] = dosed every 7 d for 5 wk, SKOV3, Nu/Nu mice

CCCCCCCCCCCCC/C=C/[C@H](O)[C@@H](CO)NC(=O)CCCCC [CER in Solution, C6-ceramide]
IC50 ([1]; Homo sapiens, SK-OV-3, SKOV-3 cells, MTT, 72 hr treatment, mean±SD, n=8, read-out: IC50 (nM), inhibition of growth): 10000 nM

N.N.[Cl][Pt][Cl] [Cisplatin in Solution, Cis-dichlorodiammine Pt (II)]
Median Survival ([2]; Kaplan-Meyers analysis, 10 mice per group): 28 days | Average Tumor Size at 21 Days (mm^3) [2, 4]: 640 ± 314 mm^3 | Time for First Tumor to Reach 1000 mm^3 [2, 4]: 17 days

N.N.O=C([O-])C1(C(=O)[O-])CCC1.[Pt+2] [carboplatin]
half life (published values) [3]: 50.4 min

cis-Diamine Pt (II) Chloride Monomyristic Acid [Cisplatin-mono-myristate]
Degree of Combination Effect [1]: synergistically

cis-Diamine Pt (II) Chloride Monopalmitic Acid [Cisplatin-mono-palmitate]
Degree of Combination Effect [1]: synergistically
